{
  "source": "ChEMBL document CHEMBL5390237",
  "about": "“Discovery of Selective Histone Deacetylase 1 and 2 Inhibitors: Screening of a Focused Library Constructed by Click Chemistry, Kinetic Binding Analysis, and Biological Evaluation” (J Med Chem, 2023)",
  "data": [
    {"biological_target": "Histone deacetylase 2 (Homo sapiens, UniProt Q92769)", "sequence (Q92769 whole entry)": "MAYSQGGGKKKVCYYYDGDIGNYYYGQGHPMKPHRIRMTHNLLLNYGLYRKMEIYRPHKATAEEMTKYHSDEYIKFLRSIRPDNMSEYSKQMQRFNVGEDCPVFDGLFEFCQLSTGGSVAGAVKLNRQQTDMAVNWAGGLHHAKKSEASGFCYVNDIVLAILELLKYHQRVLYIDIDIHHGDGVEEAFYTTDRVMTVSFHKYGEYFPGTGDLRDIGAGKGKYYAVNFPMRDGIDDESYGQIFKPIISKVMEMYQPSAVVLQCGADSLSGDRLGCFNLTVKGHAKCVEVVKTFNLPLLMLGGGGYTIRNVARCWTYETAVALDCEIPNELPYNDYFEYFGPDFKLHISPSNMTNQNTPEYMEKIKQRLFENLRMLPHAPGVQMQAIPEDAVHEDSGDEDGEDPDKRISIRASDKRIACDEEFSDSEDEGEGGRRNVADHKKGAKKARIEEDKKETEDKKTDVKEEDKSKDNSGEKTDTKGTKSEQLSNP", "experiment": "Inhibition of full-length recombinant human C-terminal GST tagged HDAC2 expressed in Sf9 insect cells using aminoluciferin peptide substrate at 100 nM preincubated for 3 hrs followed by substrate addition and measured after 30 mins by HDAC-Glo I/II chemiluminescence assay", "conditions": "time 3.5 hrs", "units": {"inhibition": "%"}, "values": [
      {"smiles": "Nc1ccc(-c2cccs2)cc1NC(=O)c1cn(-c2ccccc2-c2ccccc2)nn1", "inhibition": 0},
      {"smiles": "Nc1ccc(-c2ccsc2)cc1NC(=O)c1cn(CCC2CCCCC2)nn1", "inhibition": 0},
      {"smiles": "COc1ccc(Cn2cc(C(=O)Nc3cc(-c4ccsc4)ccc3N)nn2)cc1", "inhibition": 25},
      {"smiles": "Nc1ccc(-c2ccsc2)cc1NC(=O)CCc1cn(CCCCCCCC(=O)O)nn1", "inhibition": 1},
      {"smiles": "Nc1ccc(-c2cccs2)cc1NC(=O)c1ccc(-c2cn(CCc3ccccc3C(F)(F)F)nn2)s1", "inhibition": 0},
      {"smiles": "Nc1ccc(-c2cccs2)cc1NC(=O)c1cccc(-c2cn(Cc3cccc(C(=O)O)c3)nn2)c1", "inhibition": 17},
      {"smiles": "Nc1ccc(-c2cccs2)cc1NC(=O)c1cn(CCc2ccc(C(F)(F)F)cc2)nn1", "inhibition": 9},
      {"smiles": "COc1ccccc1CCn1cc(C(=O)Nc2cc(-c3cccs3)ccc2N)nn1", "inhibition": 6},
      {"smiles": "Nc1ccc(-c2cccnc2)cc1NC(=O)CCc1cn(CCc2ccccc2[N+](=O)[O-])nn1", "inhibition": 1},
      {"smiles": "Cc1ccc(-n2cc(CCC(=O)Nc3cc(-c4cccnc4)ccc3N)nn2)cc1C", "inhibition": 0},
      {"smiles": "Nc1ccc(-c2ccccc2)cc1NC(=O)c1cn(/C=C/c2ccccc2)nn1", "inhibition": 3},
      {"smiles": "Nc1ccc(-c2cccs2)cc1NC(=O)c1cn(CCc2cccc(Cl)c2)nn1", "inhibition": 2},
      {"smiles": "COc1ccc(-n2cc(CCC(=O)Nc3cc(-c4ccc(F)cc4)ccc3N)nn2)cc1", "inhibition": 10},
      {"smiles": "COc1ccc(Cn2cc(C(=O)Nc3cc(-c4ccccc4)ccc3N)nn2)cc1", "inhibition": 6},
      {"smiles": "Nc1ccc(-c2ccc(F)cc2)cc1NC(=O)c1cn(CC(=O)c2ccccc2)nn1", "inhibition": 6},
      {"smiles": "Nc1ccc(-c2ccsc2)cc1NC(=O)c1cn(-c2cccc3ccccc23)nn1", "inhibition": 0},
      {"smiles": "Nc1ccc(-c2ccsc2)cc1NC(=O)c1cn(Cc2ccc(-c3ccccc3)cc2)nn1", "inhibition": 0},
      {"smiles": "Nc1ccc(-c2cccs2)cc1NC(=O)CCc1cn(CCc2ccccc2Cl)nn1", "inhibition": 5},
      {"smiles": "Nc1ccc(-c2cccs2)cc1NC(=O)c1cn(Cc2nc3ccccc3[nH]2)nn1", "inhibition": 20},
      {"smiles": "Nc1ccc(-c2cccs2)cc1NC(=O)c1ccc(-c2cn(CCC3CCCCC3)nn2)s1", "inhibition": 0},
      {"smiles": "Nc1ccc(-c2cccnc2)cc1NC(=O)CCc1cn(CCc2ccsc2)nn1", "inhibition": 1},
      {"smiles": "Cc1ccc(CCn2cc(-c3cccc(C(=O)Nc4cc(-c5cccs5)ccc4N)c3)nn2)cc1", "inhibition": 4},
      {"smiles": "Nc1ccc(-c2cccs2)cc1NC(=O)c1ccc(-c2cn(Cc3cccc4ccccc34)nn2)s1", "inhibition": 13},
      {"smiles": "Nc1ccc(-c2ccccc2)cc1NC(=O)c1cn(CCc2ccc(C(F)(F)F)cc2)nn1", "inhibition": 0},
      {"smiles": "Cc1ccccc1CCn1cc(C(=O)Nc2cc(-c3ccccc3)ccc2N)nn1", "inhibition": 0},
      {"smiles": "Nc1ccc(-c2ccccc2)cc1NC(=O)CCc1cn(CCc2ccc(F)cc2)nn1", "inhibition": 9},
      {"smiles": "Nc1ccc(-c2cccs2)cc1NC(=O)c1ccc(-c2cn(C[S+]([O-])c3ccccc3)nn2)s1", "note": "(centres undefined)", "inhibition": 60},
      {"smiles": "Nc1ccc(-c2cccs2)cc1NC(=O)CCc1cn(CCN2CCOCC2)nn1", "inhibition": 1},
      {"smiles": "Cc1ccc(-n2cc(C(=O)Nc3cc(-c4ccc(F)cc4)ccc3N)nn2)cc1C", "inhibition": 11},
      {"smiles": "Nc1ccc(-c2ccc(F)cc2)cc1NC(=O)c1cn(CS(=O)(=O)c2ccccc2)nn1", "inhibition": 7},
      {"smiles": "Cc1ccccc1CCn1cc(-c2ccc(C(=O)Nc3cc(-c4cccs4)ccc3N)cc2)nn1", "inhibition": 0},
      {"smiles": "Nc1ccc(-c2cccnc2)cc1NC(=O)CCc1cn(CCN2CCOCC2)nn1", "inhibition": 0},
      {"smiles": "CCc1ccc(Cn2cc(-c3cccc(C(=O)Nc4cc(-c5cccs5)ccc4N)c3)nn2)cc1", "inhibition": 0},
      {"smiles": "COc1ccc(Cn2cc(C(=O)Nc3cc(-c4ccc(F)cc4)ccc3N)nn2)cc1", "inhibition": 19},
      {"smiles": "Nc1ccc(-c2cccs2)cc1NC(=O)c1cccc(-c2cn(-c3ccc([N+](=O)[O-])cc3)nn2)c1", "inhibition": 5},
      {"smiles": "Nc1ccc(-c2ccsc2)cc1NC(=O)CCc1cn(CCc2cccc(C(F)(F)F)c2)nn1", "inhibition": 2},
      {"smiles": "Nc1ccc(-c2cccs2)cc1NC(=O)c1cn(CCc2ccccc2[N+](=O)[O-])nn1", "inhibition": 19},
      {"smiles": "Cc1csc(CCn2cc(CCC(=O)Nc3cc(-c4cccnc4)ccc3N)nn2)n1", "inhibition": 6},
      {"smiles": "Cc1cccc(CCn2cc(-c3ccc(C(=O)Nc4cc(-c5cccs5)ccc4N)cc3)nn2)c1", "inhibition": 26},
      {"smiles": "Nc1ccc(-c2ccc(F)cc2)cc1NC(=O)c1cn(/C=C/c2ccccc2)nn1", "inhibition": 3},
      {"smiles": "Nc1ccc(-c2ccc(F)cc2)cc1NC(=O)CCc1cn(CCc2ccc(F)cc2)nn1", "inhibition": 17},
      {"smiles": "Cc1ccc(-n2cc(CCC(=O)Nc3cc(-c4ccsc4)ccc3N)nn2)cc1C", "inhibition": 0},
      {"smiles": "Nc1ccc(-c2ccccc2)cc1NC(=O)CCc1cn(CC23CC4CC(CC(C4)C2)C3)nn1", "inhibition": 0},
      {"smiles": "Cc1csc(CCn2cc(C(=O)Nc3cc(-c4cccs4)ccc3N)nn2)n1", "inhibition": 15},
      {"smiles": "Nc1ccc(-c2ccsc2)cc1NC(=O)CCc1cn(CCCCCCC(=O)O)nn1", "inhibition": 0},
      {"smiles": "Nc1ccc(-c2ccsc2)cc1NC(=O)c1cn(-c2ccc([N+](=O)[O-])cc2)nn1", "inhibition": 0},
      {"smiles": "Nc1ccc(-n2cc(CCC(=O)Nc3cc(-c4ccccc4)ccc3N)nn2)cc1", "inhibition": 18},
      {"smiles": "Nc1ccc(-c2cccs2)cc1NC(=O)c1cccc(-c2cn(CCCCCCCC(=O)O)nn2)c1", "inhibition": 3},
      {"smiles": "Nc1ccc(-c2ccsc2)cc1NC(=O)c1cn(CCC23CC4CC(CC(C4)C2)C3)nn1", "inhibition": 0},
      {"smiles": "Nc1ccc(-c2cccs2)cc1NC(=O)c1ccc(-c2cn(CCCCCCC(=O)O)nn2)s1", "inhibition": 28},
      {"smiles": "Nc1ccc(-c2cccs2)cc1NC(=O)c1ccc(-c2cn(CCc3cccc4ccccc34)nn2)cc1", "inhibition": 0},
      {"smiles": "COc1ccc(CCn2cc(-c3cccc(C(=O)Nc4cc(-c5cccs5)ccc4N)c3)nn2)cc1", "inhibition": 1},
      {"smiles": "Nc1ccc(-c2ccccc2)cc1NC(=O)c1cn(CCc2ccccc2C(F)(F)F)nn1", "inhibition": 0},
      {"smiles": "Nc1ccc(-c2ccsc2)cc1NC(=O)CCc1cn(CCC2CCCCC2)nn1", "inhibition": 0},
      {"smiles": "Nc1ccc(-c2cccs2)cc1NC(=O)c1cccc(-c2cn(/C=C/c3ccccc3)nn2)c1", "inhibition": 10},
      {"smiles": "Nc1ccc(-c2ccc(F)cc2)cc1NC(=O)CCc1cn(CCc2ccc(C(=O)O)cc2)nn1", "inhibition": 33},
      {"smiles": "Nc1ccc(-c2ccc(F)cc2)cc1NC(=O)CCc1cn(Cc2ccc(-c3ccccc3)cc2)nn1", "inhibition": 0},
      {"smiles": "Nc1ccc(-c2ccc(F)cc2)cc1NC(=O)c1cn(CCN2CCOCC2)nn1", "inhibition": 10},
      {"smiles": "Nc1ccc(-c2ccc(F)cc2)cc1NC(=O)CCc1cn(Cc2ccc3ccccc3n2)nn1", "inhibition": 26},
      {"smiles": "Nc1ccc(-c2cccs2)cc1NC(=O)c1cn(Cc2cccc3ccccc23)nn1", "inhibition": 13},
      {"smiles": "Nc1ccc(-c2ccc(F)cc2)cc1NC(=O)c1cn(CC(=O)Nc2ccc(F)cc2)nn1", "inhibition": 32},
      {"smiles": "COc1ccc(CCn2cc(CCC(=O)Nc3cc(-c4ccccc4)ccc3N)nn2)cc1", "inhibition": 17},
      {"smiles": "Nc1ccc(-c2ccc(F)cc2)cc1NC(=O)c1cn(CCc2ccc(C(=O)O)cc2)nn1", "inhibition": 31},
      {"smiles": "Nc1ccc(-c2ccc(F)cc2)cc1NC(=O)CCc1cn(CCC23CC4CC(CC(C4)C2)C3)nn1", "inhibition": 0},
      {"smiles": "Cc1cccc(C)c1NC(=O)Cn1cc(C(=O)Nc2cc(-c3ccsc3)ccc2N)nn1", "inhibition": 24},
      {"smiles": "Nc1ccc(-c2ccc(F)cc2)cc1NC(=O)CCc1cn(CCCCCC(=O)O)nn1", "inhibition": 0},
      {"smiles": "Nc1ccc(-c2cccs2)cc1NC(=O)c1cn(CCC23CC4CC(CC(C4)C2)C3)nn1", "inhibition": 2},
      {"smiles": "Nc1ccc(-c2cccs2)cc1NC(=O)CCc1cn(Cc2cc3ccccc3s2)nn1", "inhibition": 27},
      {"smiles": "Nc1ccc(-c2ccsc2)cc1NC(=O)c1cn(CCc2cccc3ccccc23)nn1", "inhibition": 0},
      {"smiles": "Nc1ccc(-c2cccs2)cc1NC(=O)c1ccc(-c2cn(Cc3ccc(OC(F)(F)F)cc3)nn2)cc1", "inhibition": 5},
      {"smiles": "COc1ccc(-n2cc(CCC(=O)Nc3cc(-c4ccccc4)ccc3N)nn2)cc1", "inhibition": 11},
      {"smiles": "COc1ccc(CCn2cc(C(=O)Nc3cc(-c4cccs4)ccc3N)nn2)cc1", "inhibition": 21},
      {"smiles": "Cc1csc(CCn2cc(-c3cccc(C(=O)Nc4cc(-c5cccs5)ccc4N)c3)nn2)n1", "inhibition": 24},
      {"smiles": "Nc1ccc(-c2cccs2)cc1NC(=O)c1cccc(-c2cn(CCc3ccc(C(F)(F)F)cc3)nn2)c1", "inhibition": 0},
      {"smiles": "Nc1ccc(-c2ccccc2)cc1NC(=O)CCc1cn(CCCCCc2ccccc2)nn1", "inhibition": 0},
      {"smiles": "COc1ccc(-n2cc(CCC(=O)Nc3cc(-c4ccsc4)ccc3N)nn2)cc1", "inhibition": 12},
      {"smiles": "COc1ccccc1CCn1cc(-c2cccc(C(=O)Nc3cc(-c4cccs4)ccc3N)c2)nn1", "inhibition": 3},
      {"smiles": "Nc1ccc(-c2cccs2)cc1NC(=O)c1cccc(-c2cn(CCN3CCOCC3)nn2)c1", "inhibition": 48},
      {"smiles": "COc1ccccc1CCn1cc(C(=O)Nc2cc(-c3ccccc3)ccc2N)nn1", "inhibition": 0},
      {"smiles": "Nc1ccc(-c2ccccc2)cc1NC(=O)CCc1cn(CCC23CC4CC(CC(C4)C2)C3)nn1", "inhibition": 0},
      {"smiles": "Nc1ccc(-c2ccccc2)cc1NC(=O)CCc1cn(/C=C/c2ccccc2)nn1", "inhibition": 15},
      {"smiles": "Nc1ccc(-c2ccc(F)cc2)cc1NC(=O)CCc1cn(Cc2ccc(Oc3ccccc3)cc2)nn1", "inhibition": 0},
      {"smiles": "Nc1ccc(-c2cccs2)cc1NC(=O)c1ccc(-c2cn(CCCCCc3ccccc3)nn2)s1", "inhibition": 1},
      {"smiles": "COc1ccc(CCn2cc(C(=O)Nc3cc(-c4ccccc4)ccc3N)nn2)cc1", "inhibition": 0},
      {"smiles": "Nc1ccc(-c2cccs2)cc1NC(=O)c1cccc(-c2cn(CCc3cccc(F)c3)nn2)c1", "inhibition": 0},
      {"smiles": "Nc1ccc(-c2ccsc2)cc1NC(=O)c1cn(CC(=O)c2ccccc2)nn1", "inhibition": 0},
      {"smiles": "Nc1ccc(-c2cccs2)cc1NC(=O)c1cccc(-c2cn(CC(=O)Nc3ccc(F)cc3)nn2)c1", "inhibition": 0},
      {"smiles": "Nc1ccc(-c2cccs2)cc1NC(=O)CCc1cn(CS(=O)(=O)c2ccccc2)nn1", "inhibition": 15},
      {"smiles": "Nc1ccc(-c2cccs2)cc1NC(=O)c1cccc(-c2cn(CCc3cccc(Cl)c3)nn2)c1", "inhibition": 0},
      {"smiles": "Nc1ccc(-c2cccs2)cc1NC(=O)c1cn(Cc2ccc3ccccc3c2)nn1", "inhibition": 17},
      {"smiles": "Nc1ccc(-c2cccs2)cc1NC(=O)c1ccc(-c2cn(-c3cccc4ccccc34)nn2)s1", "inhibition": 0},
      {"smiles": "Nc1ccc(-c2ccccc2)cc1NC(=O)c1cn(C[S+]([O-])c2ccccc2)nn1", "note": "(centres undefined)", "inhibition": 0},
      {"smiles": "Nc1ccc(-c2cccs2)cc1NC(=O)CCc1cn(CCc2cccc(C(F)(F)F)c2)nn1", "inhibition": 3},
      {"smiles": "Nc1ccc(-c2cccs2)cc1NC(=O)c1ccc(-c2cn(Cc3ccc4ccccc4n3)nn2)cc1", "inhibition": 52}
    ]}
  ]
}
